Measured values: US20210221834A1, “SWEETENER AND SWEETENED COMPOSITIONS INCORPORATING REBAUDOSIDE N” (CARGILL, INCORPORATED, priority 2013, published 2021)
Entries after “also recorded” stand apart in the source; their conditions may differ.

Legend:
Assay type in all cases: in vivo, human
[1] = Sensory evaluation of Reb A, Reb D and Reb N solutions in water (Example 2); design: key to Bitterness: 1 = none; 2 = trace; 3 = faint; 4 = mild; 5 = moderate; 6 = definite; 7 = strong; 8 = very strong; 9 = extreme; details: 500 ppm (wt/wt) in water, room temperature; for Sweetness Intensity (percent sucrose equivalent sweetness): two scientists, sucrose standards 6%, 7%, 8%; for Bitterness: intensity scale 1-9
Method: Solutions containing 500 ppm (wt/wt) of RebA, RebD and RebN, respectively, in water were prepared and evaluated at room temperature by two scientists with training and experience in the sensory evaluation of steviol glycosides. The samples were evaluated for sweetness intensity and other qualitative attributes. A set of sucrose standards were prepared by dissolving sugar into room temperature water (6%, 7%, 8% by weight) and used as references for sweetness intensity.

[2] = Sensory evaluation in citric/citrate buffer at pH 3.2 (Example 4); design: key to Bitterness intensity: 0=none; 1=trace; 2=faint; 3=slight; 4=mild; 5=moderate; 6=definite; 7=strong; 8=very strong; 9=extreme
Method: Method: Solutions containing 600 ppm (wt/wt) Reb A or blends of Reb A, Reb B and Reb N in citric/citrate buffer at pH 3.2 were prepared and evaluated at room temperature by three scientists with training and experience in the sensory evaluation of steviol glycosides. The samples were evaluated for sweetness intensity and other qualitative attributes.

[3] = Sensory evaluation of three-way blends of reb A, reb B and reb N in water (Example 3); details: 500 ppm (wt/wt) in water, room temperature
Method: Solutions containing 500 ppm (wt/wt) of blends of reb A, reb B, and reb N in water were prepared and evaluated at room temperature by five scientists with training and experience in the sensory evaluation of steviol glycosides. The samples were evaluated for sweetness intensity and other qualitative attributes and compared against Reb A. The results are shown in the following table: […]

[4] = Sensory evaluation of 4-way blend in deionized water (Example 5); design: key to Bitterness / Licorice note: 0=none; 1=trace; 2=faint; 3=slight; 4=mild; 5=moderate; 6=definite; 7=strong; 8=very strong; 9=extreme; details: 500 ppm in deionized water
Method: Method: Solutions containing 500 ppm Reb A or blends of RebA, RebB, RebD and RebN were prepared in deionized water and evaluated at room temperature by three scientists with training and experience in the sensory evaluation of steviol glycosides. The samples were evaluated for sweetness intensity and other qualitative attributes.

[5] = 600 ppm (wt/wt) in citric/citrate buffer pH 3.2

Compound	Other Sweetness Quality [1]	Sweetness Linger [1]	Sweetness Onset [1]	Sweetness Intensity (percent sucrose equivalent sweetness) [1] [% SE]	Bitterness [1]	Bitter onset [2, 5]	Licorice [2, 5]	Lingering bitterness [2, 5]	Sweet profile [2, 5]	Sucrose equivalent sweetness ([2]; 600 ppm (wt/wt) in citric/citrate buffer pH 3.2, room temperature, three scientists) [%]	Bitterness intensity ([2]; 600 ppm (wt/wt) in citric/citrate buffer pH 3.2, intensity scale 0-9)	Sweetness intensity rated by the judges [3]	Bitter ([3]; five scientists)	Linger ([3]; five scientists)	Sweet (quality) ([3]; five scientists)	Sweet onset ([3]; five scientists)	Lingering bitter aftertaste [4]	Sucrose equivalent sweetness ([4]; room temperature, three scientists) [%]	Bitterness ([4]; intensity scale 0-9)	Licorice note ([4]; intensity scale 0-9)
C=C1C[C@@]23CC[C@H]4[C@@](C)(CCC[C@@]4(C)C(=O)O[C@@H]4O[C@H](CO)[C@@H](O)[C@H](O[C@@H]5O[C@H](CO)[C@@H](O)[C@H](O)[C@H]5O)[C@H]4O[C@@H]4O[C@@H](C)[C@H](O)[C@@H](O)[C@H]4O)[C@@H]2CC[C@]1(O[C@@H]1O[C@H](CO)[C@@H](O)[C@H](O[C@@H]2O[C@H](CO)[C@@H](O)[C@H](O)[C@H]2O)[C@H]1O[C@@H]1O[C@H](CO)[C@@H](O)[C@H](O)[C@H]1O)C3 [Reb N]	rounded, and syrupy, and best	moderate	quick	7.5	1	–	–	–	–	–	–	–	–	–	–	–	–	–	–	–
C=C1C[C@@]23CC[C@H]4[C@@](C)(CCC[C@@]4(C)C(=O)O[C@@H]4O[C@H](CO)[C@@H](O)[C@H](O)[C@H]4O)[C@@H]2CC[C@]1(O[C@@H]1O[C@H](CO)[C@@H](O)[C@H](O[C@@H]2O[C@H](CO)[C@@H](O)[C@H](O)[C@H]2O)[C@H]1O[C@@H]1O[C@H](CO)[C@@H](O)[C@H](O)[C@H]1O)C3 [Reb A, Rebaudioside A]	spikey; also recorded: worst	moderate	slow	6	5	extremely rapid	slight	strong	peaky	7	7	6.0	moderate	moderate	poor	slow	moderate	6	6	3
C=C1C[C@@]23CC[C@H]4[C@@](C)(CCC[C@@]4(C)C(=O)O[C@@H]4O[C@H](CO)[C@@H](O)[C@H](O)[C@H]4O[C@@H]4O[C@H](CO)[C@@H](O)[C@H](O)[C@H]4O)[C@@H]2CC[C@]1(O[C@@H]1O[C@H](CO)[C@@H](O)[C@H](O[C@@H]2O[C@H](CO)[C@@H](O)[C@H](O)[C@H]2O)[C@H]1O[C@@H]1O[C@H](CO)[C@@H](O)[C@H](O)[C@H]1O)C3 [Reb D, Rebaudioside D]	rounded, and syrupy and best	slight	quick	7	2	–	–	–	–	–	–	–	–	–	–	–	–	–	–	–
